Assay [1] relates to anaesthetized cats. The experiment in a line: Measurement of the hypotensive effect on anaesthetized cats (i.v. screening). In kind it is in vivo, cat. To be noted: for Mean arterial pressure decrease: anaesthetized cats; for blood pressure lowering action (in words): intravenous, summary of Table 1. The protocol:
A tube was introduced into the trachea of cats anaesthetized by the intraperitoneal (i.p.) administration of 35 mg/kg of sodium pentobarbital whereby the spontaneous breathing was supported. On the one side of the animals, the femoral artery and vein were exposed and a polyethylene cannula was introduced in both vessels each. The substances to be tested were administered through the venous cannula. The mean arterial blood pressure was measured by connecting the arterial cannula with a Statham P 23 Db pressure transducer and electromanometer.
As a first screening dose, 5 mg/kg of the compounds to be tested were intravenously (i.v.) administered.

The subject of assay [2] is pressor (blood pressure increasing) effect of epinephrine. The experiment in a line: Inhibition of the pressor effect of epinephrine. The note with it: in vivo.
The subject of assay [3] is conscious SH rats. The experiment in a line: Antihypertensive effect on conscious, spontaneously hypertensive (SH) rats after oral administration. In kind it is in vivo, rat. The source says: The systolic blood pressure was indirectly measured by the tail-cuff method. The compounds to be tested were introduced orally (p.o.) to the animals. The blood pressure measurements were made by using a 5-channel automatized equipment.

In assay [4] the test system is adrenergic receptor-mediated calcium channel. The experiment in a line: Calcium-antagonism on isolated portal vein: adrenergic receptor-mediated calcium channel. It is filed as cell-based. To be noted: rat portal vein, 1×10^-5 mole norepinephrine, 37° C.; read-out: Inhibition of the calcium channel, adrenergic receptor-mediated, IC50. The protocol:
(§1) The calcium-antagonism of the compounds of the invention was studied on an isolated vessel preparation based on the work of M. Fiol de Cuneo et al. [Arch. Int. Pharmacodyn.
(§2) Male CFY rats with a body-weight of 150 to 200 g were bled by decapitation and the portal vein was immediately prepared starting from the hepatic portal. The vessel was longitudinally incised, bound to a transducer registering the contractions and incubated under a tension of 1 g at 37° C. in a calcium-free Krebs-Ringer bicarbonate solution aerated with carbogen. After an equilibration lasting for 30 minutes, the functioning of the receptor-mediated and the K^+ -depolarisation-mediated calcium channels, respectively, were investigated.
(§3) All measurements were carried out at 37° C. while bubbling through carbogen.

Assay [5] has as its target T1, potential-mediated calcium channel (Rattus norvegicus, UniProt P22002).
T1 construct: from tissue; host or cells: isolated rat portal vein
The experiment in a line: Calcium-antagonism on isolated portal vein: potential-mediated calcium channel. In kind it is cell-based. Here is the method:
as §1, §2
For investigating the potential-mediated calcium channel, the vein placed in the calcium-free Krebs-Ringer solution was washed by adding and then by removing 80 millimoles of potassium chloride while maintaining the isotania until no contraction appeared on repeatedly adding potassium chloride.
as §3

The test system of assay [6] is pre- and postsynaptic alpha receptors. The experiment in a line: Action on the pre- and postsynaptic adrenergic alpha receptors on the stimulated mouse vas deferens. In kind it is cell-based. To be noted: concentration 10^-7 mole. The protocol:
The method of Hughes et al. [Brit. J. Phamacol. 51, pp. 139-140P (1975)] was used. The preparations suspended in a modified Krebs solution at 31° C. were excited by the field stimulation method [rectangular paired impulses with 1 msec interval, supramaximal potential (70 to 75 V=8 to 9 V/cm) and 100 msec impulse interval, pairs repeated in each 10 sec]. After stimulation, norepinephrine (NE) was dropped into the organ bath and a dose-response curve was taken up. Thus, the effect of both the endogenous norepinephrine liberated by stimulation and the exogenous norepinephrine could be studied before and after adding the substance to be tested.

Assay [7] has as its system conscious SH rats. The experiment in a line: Antihypertensive effect on conscious SH rats after acute oral treatment. In kind it is in vivo, rat. The note with it: SH rats. The source says: (§4) These experiments were accomplished on conscious spontaneously hypertensive (SH) and renally hypertensive rats.
(§5) The systolic blood pressure and heart rate of the animals were indirectly measured by using the tail-cuff method by means of a 5- channel automatized equipment.

In assay [8] the test system is anaesthetized dogs. The experiment in a line: Hypotensive and heart rate effects on anaesthetized dogs after intravenous or intraduodenal administration. It is filed as in vivo, Beagle dog. Here is the method:
(§6) Beagle dogs of both sexes were anaesthetized by the intravenous administration of 40 mg/kg of sodium pentobarbital. A cannula was introduced to the femoral artery and vein each on one side for the intravenous administration of the compounds to be tested as well as for measuring the blood pressure.
In an other series of these experiments, the substances were administered through a duodenal tube. Similarly to the experiments carried out on cats, the systemic arterial blood pressure was measured by using an electromanometer and the cardiotachometer was triggered by the heart rate wave sign. […]

The subject of assay [9] is conscious renal hypertensive rats. The experiment in a line: Antihypertensive effect on conscious renal hypertensive rats after acute oral treatment. It is filed as in vivo, rat. To be noted: 1.25 mg/kg p.o.
Excerpt: as §4, §5

Assay [10] concerns postsynaptic alpha1 receptor. The experiment in a line: Kinetic analysis on rabbit aorta strip preparation: postsynaptic alpha1 receptor antagonism. It is filed as cell-based. The protocol: Male rabbits with a body-weight of 3 to 3.5 kg were used for these experiments. […] A dose response curve was plotted by using norepinephrine and a dose selected from the steepest interval of the curve was added repeatedly to the bath until obtaining equal responses. Then, the compound to be tested was added and after 5 minutes, the dose series of norepinephrine was repeated. The extent of the inhibition was expressed as percentage.

In assay [11] the test system is renal artery. The experiment in a line: Renal arterial vascular resistance in anaesthetized dogs. In kind it is in vivo, Beagle dog. To be noted: 1.0 mg/kg intraduodenal. The protocol: as §6
In an other series of these experiments, the substances were administered through a duodenal tube. Similarly to the experiments carried out on cats, the systemic arterial blood pressure was measured by using an electromanometer and the cardiotachometer was triggered by the heart rate wave sign.
The renal artery on one side was exposed retroperitoneally and fitted with an electromagnetic flow-meter head for measuring the blood flow of the renal arterial vascular bed and for determining the local vascular resistance.

[12] abbreviates: rat portal vein, 80 millimoles KCl, 37° C., read-out: Inhibition of the calcium channel, potential-mediated, IC50.

Where a name gives a salt, the structure may show the parent alone. Read-outs that look alike come from different tables or passages of the source.

T1 sequence (P22002 whole entry): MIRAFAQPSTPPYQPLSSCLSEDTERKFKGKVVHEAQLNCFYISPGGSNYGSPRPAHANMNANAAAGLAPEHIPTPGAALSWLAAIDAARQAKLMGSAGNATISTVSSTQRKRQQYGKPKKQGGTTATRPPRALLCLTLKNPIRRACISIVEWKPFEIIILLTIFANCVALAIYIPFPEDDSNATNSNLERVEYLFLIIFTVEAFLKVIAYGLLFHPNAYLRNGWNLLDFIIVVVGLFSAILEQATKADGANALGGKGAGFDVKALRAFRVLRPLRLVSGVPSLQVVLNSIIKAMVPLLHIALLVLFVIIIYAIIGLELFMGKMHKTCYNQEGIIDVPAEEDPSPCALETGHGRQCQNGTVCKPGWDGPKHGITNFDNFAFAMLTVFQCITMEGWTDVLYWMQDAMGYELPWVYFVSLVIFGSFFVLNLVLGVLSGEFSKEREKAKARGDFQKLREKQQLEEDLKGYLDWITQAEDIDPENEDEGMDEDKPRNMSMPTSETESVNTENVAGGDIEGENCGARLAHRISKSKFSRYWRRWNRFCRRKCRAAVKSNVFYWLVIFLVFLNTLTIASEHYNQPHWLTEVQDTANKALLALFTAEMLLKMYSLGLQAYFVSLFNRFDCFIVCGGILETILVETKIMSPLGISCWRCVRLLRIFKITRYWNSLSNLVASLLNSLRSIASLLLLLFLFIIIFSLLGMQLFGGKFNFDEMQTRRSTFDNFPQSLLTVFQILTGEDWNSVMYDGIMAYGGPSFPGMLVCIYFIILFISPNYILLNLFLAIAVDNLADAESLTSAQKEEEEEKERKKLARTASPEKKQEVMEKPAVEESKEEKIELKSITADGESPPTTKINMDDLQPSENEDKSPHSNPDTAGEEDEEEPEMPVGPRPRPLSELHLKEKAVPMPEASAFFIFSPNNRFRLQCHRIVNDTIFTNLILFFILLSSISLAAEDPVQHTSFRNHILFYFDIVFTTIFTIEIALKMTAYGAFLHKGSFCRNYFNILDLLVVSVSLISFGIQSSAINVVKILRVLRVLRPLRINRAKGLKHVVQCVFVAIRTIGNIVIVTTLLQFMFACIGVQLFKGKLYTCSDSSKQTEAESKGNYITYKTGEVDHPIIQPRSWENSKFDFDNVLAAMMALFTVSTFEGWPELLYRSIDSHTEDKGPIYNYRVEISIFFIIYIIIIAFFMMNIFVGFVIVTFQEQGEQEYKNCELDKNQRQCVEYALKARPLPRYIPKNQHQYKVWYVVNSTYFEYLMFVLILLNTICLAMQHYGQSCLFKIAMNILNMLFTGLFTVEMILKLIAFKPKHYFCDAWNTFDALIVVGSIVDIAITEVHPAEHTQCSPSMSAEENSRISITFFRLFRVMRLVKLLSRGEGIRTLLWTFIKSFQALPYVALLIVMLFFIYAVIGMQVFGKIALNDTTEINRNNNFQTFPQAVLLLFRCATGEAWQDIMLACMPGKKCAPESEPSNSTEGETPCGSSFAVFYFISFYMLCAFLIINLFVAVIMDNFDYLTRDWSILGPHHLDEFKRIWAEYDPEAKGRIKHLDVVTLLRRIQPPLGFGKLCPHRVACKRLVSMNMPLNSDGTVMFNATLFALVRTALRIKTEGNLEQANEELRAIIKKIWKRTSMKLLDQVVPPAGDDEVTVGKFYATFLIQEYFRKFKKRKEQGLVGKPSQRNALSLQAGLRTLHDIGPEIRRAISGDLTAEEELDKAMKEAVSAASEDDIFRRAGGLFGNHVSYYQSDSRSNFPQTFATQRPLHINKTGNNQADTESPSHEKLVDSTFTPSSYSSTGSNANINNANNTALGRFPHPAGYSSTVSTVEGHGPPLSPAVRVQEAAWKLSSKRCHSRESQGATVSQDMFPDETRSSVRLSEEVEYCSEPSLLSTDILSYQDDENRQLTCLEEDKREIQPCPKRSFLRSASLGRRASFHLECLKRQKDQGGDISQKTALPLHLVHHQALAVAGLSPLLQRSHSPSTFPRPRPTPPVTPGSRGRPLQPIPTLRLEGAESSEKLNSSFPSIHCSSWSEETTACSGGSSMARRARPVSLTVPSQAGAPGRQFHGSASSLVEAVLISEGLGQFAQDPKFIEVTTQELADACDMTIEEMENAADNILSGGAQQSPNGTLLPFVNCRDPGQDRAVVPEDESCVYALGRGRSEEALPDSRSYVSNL
T1 sequence (P54290 25-944 partner limits assumed): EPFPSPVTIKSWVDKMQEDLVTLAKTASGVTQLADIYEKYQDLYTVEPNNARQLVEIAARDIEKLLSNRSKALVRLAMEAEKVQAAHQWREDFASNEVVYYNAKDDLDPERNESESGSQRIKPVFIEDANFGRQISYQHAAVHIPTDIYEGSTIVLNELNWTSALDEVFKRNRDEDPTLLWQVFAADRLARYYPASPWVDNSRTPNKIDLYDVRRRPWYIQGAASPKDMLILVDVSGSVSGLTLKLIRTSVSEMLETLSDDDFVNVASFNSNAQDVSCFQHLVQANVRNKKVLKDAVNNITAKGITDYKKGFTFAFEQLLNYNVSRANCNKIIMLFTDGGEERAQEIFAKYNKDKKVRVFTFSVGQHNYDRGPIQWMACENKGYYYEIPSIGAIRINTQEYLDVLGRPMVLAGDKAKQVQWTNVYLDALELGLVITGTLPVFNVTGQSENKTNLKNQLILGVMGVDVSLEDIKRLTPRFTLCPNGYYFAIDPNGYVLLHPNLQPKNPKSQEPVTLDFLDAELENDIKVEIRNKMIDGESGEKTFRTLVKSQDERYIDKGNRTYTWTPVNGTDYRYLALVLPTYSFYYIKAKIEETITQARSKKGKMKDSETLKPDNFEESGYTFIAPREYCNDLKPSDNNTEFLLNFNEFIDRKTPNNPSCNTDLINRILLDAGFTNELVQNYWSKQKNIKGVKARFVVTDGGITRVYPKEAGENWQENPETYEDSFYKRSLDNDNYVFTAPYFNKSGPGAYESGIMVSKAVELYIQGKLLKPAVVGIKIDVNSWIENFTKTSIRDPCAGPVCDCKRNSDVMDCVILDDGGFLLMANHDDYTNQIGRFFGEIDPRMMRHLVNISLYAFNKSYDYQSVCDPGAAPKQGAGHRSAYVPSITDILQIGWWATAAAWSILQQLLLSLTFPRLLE
T1 sequence (P54290 945-1091 partner limits assumed): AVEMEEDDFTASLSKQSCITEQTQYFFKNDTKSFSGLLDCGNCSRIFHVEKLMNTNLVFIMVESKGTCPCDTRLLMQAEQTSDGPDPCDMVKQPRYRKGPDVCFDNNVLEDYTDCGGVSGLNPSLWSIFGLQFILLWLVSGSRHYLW

As for `CCOC(=O)N1CCN(c2ccc(=O)n(CCNCCOc3ccccc3)n2)CC1` [Example 22], the “Mean arterial pressure decrease” value in assay [1] (5.0 mg/kg i.v.) was -35 Hgmm.
`O=c1ccc(N2CCOCC2)nn1CCNCCOc1ccccc1` [Example 28]: the “Mean arterial pressure decrease” value in assay [1] (5.0 mg/kg i.v.) is given as -50 Hgmm.
Turning to `O=c1ccc(Cl)nn1CCCNCCOc1ccccc1Cl` [Example 8], the “inhibition of the pressor effect of epinephrine (in words)” value (“inhibition … (in words)” for short) in [2] is “significant inhibition”. In addition, in assay [3] (50 mg/kg p.o.), the “Decrease in the systolic blood pressure” value was -18%. Further, the “Mean arterial pressure decrease” value in assay [1] (5.0 mg/kg i.v.) is -80 Hgmm. In addition, the “blood pressure lowering action (in words)” value in assay [1] is reported as “particularly expressed”.
With `O=c1cccnn1CCCNCCOc1ccccc1F` [Example 10], in assay [2], the “inhibition … (in words)” value is “significant inhibition”. The “Decrease in the systolic blood pressure” value in assay [3] (50 mg/kg p.o.) is -25%. Further, the “Mean arterial pressure decrease” value in assay [1] (5.0 mg/kg i.v.) was -60 Hgmm.
`O=c1ccc(-n2cccc2)nn1CCCNCCOc1ccccc1` [Example 6]: the “Mean arterial pressure decrease” value in assay [1] (5.0 mg/kg i.v.) is recorded as -35 Hgmm.
In the case of `O=c1cccnn1CCNCC1COc2ccccc2O1` (centres unmarked) [Example 27], in assay [1] (5.0 mg/kg i.v.), the “Mean arterial pressure decrease” value is -30 Hgmm.
The term IC50 denotes the point on the concentration scale where inhibition reaches its midpoint. In the case of `O=c1ccc(Cl)nn1CCCNCCOc1ccccc1` [Example 4], the IC50 in assay [4] turned out to be 0.1 µM; in [5] (setting [12]), 0.2 µM. Moreover, in [3] (50 mg/kg p.o.), the “Decrease in the systolic blood pressure” value is reported as -33%. Moreover, the “Mean arterial pressure decrease” value in assay [1] (5.0 mg/kg i.v.) is -70 Hgmm. Besides, the “blood pressure lowering action (in words)” value in [1] is given as “particularly expressed”.
`O=c1cccnn1CCCNCCCOc1ccccc1` [Example 9]: the “Mean arterial pressure decrease” value in assay [1] (5.0 mg/kg i.v.) is given as -55 Hgmm.
For the compound `O=c1ccc(Cl)nn1CCCNCC1COc2ccccc2O1` (centres unmarked) [Example 2, 2-[3-(benzo[1,4]dioxan-2-yl-methylamino)-1-propyl]-6-chloro-3(2H)-pyridazinone hydrochloride], the IC50 worked out at 4 µM in assay [4] and 10 µM in assay [5] (setting [12]). Besides, the “Inhibition of the stimulation” value in [6] came out at 0%. In assay [1] (1.0 mg/kg i.v.), the “Mean arterial pressure decrease” value is -90 Hgmm. Moreover, the “blood pressure lowering action (in words)” value in [1] is on record as “particularly expressed”.
Regarding `Cc1cc(C)n(-c2ccc(=O)n(CCNCCOc3ccccc3)n2)n1` [Example 23], the “Mean arterial pressure decrease” value in assay [1] (5.0 mg/kg i.v.) is on record as -65 Hgmm.
Turning to `COc1ccc(CCN(C)CCCC(C#N)(c2ccc(OC)c(OC)c2)C(C)C)cc1OC` (centres unmarked) [Verapamil, reference compound], in assay [4], the IC50 worked out at 1 µM. The compound also had an antihypertensive effect in assay [7] (50 mg/kg p.o.) of 30%. Further, in assay [8] (10 mg/kg intraduodenal), the hypotension is on record as 30% and the “time of maximum effect” value is 30 min.
As for `O=c1cccnn1CCNCCOc1ccccc1` [Example 21], the “Mean arterial pressure decrease” value in [1] (5.0 mg/kg i.v.) is on record as -60 Hgmm.
`COC(=O)C1=C(C)NC(C)=C(C(=O)OC)C1c1ccccc1[N+](=O)[O-]` [Nifedipine, 2,6-dimethyl-4-(2-nitrophenyl)-1,4-dihydropyridine-3,5-dicarboxylic acid dimethyl ester, reference compound]: the IC50 in [4] stood at 2 µM.
Take `O=c1ccc(Cl)nn1CCCNCCSc1ccccc1` [Example 7]: the “Mean arterial pressure decrease” value in [1] (5.0 mg/kg i.v.) was -35 Hgmm.
As for `O=c1cccnn1CCCNCCOc1ccccc1` [Example 5], the IC50 in assay [4] worked out at 20 µM; in assay [5] (setting [12]) it was 50 µM. For the same compound, the “inhibition … (in words)” value in [2] is recorded as “significant inhibition”. In addition, the “Inhibition of the stimulation” value in assay [6] is on record as 16.2%. Further, the “Decrease in the systolic blood pressure” value in [3] (10 mg/kg p.o.) was -45%; in assay [3] (50 mg/kg p.o.) it was -42%. For the same compound, in [1] (5.0 mg/kg i.v.), the “Mean arterial pressure decrease” value is -100 Hgmm. Moreover, in [1], the “blood pressure lowering action (in words)” value is listed as “particularly expressed”.
For orientation: pA2 means a measure of antagonist potency on a negative log scale. Read a low pA2 as lower antagonist potency. Regarding `COc1cc2nc(N3CCN(C(=O)c4ccco4)CC3)nc(N)c2cc1OC.Cl` [Prazosine, 1-(4-amino-6,7-dimethoxy-2-quinazolinyl)-4-(2-furylcarbonyl)-piperazine hydrochloride, reference compound], the IC50 in assay [4] was found to be 0.009 µM; in [5] it was 500 µM. Besides, the “antihypertensive effect in the 5th hour” value in assay [7] (1.25 mg/kg p.o., 5th hour) stood at 26%. The compound also yielded a hypotension in [9] of 26%. Besides, the “hypotension in the 5th hour” value in [9] (5th hour) is 20%. Besides, in assay [8] (prazosine 1 mg/kg intraduodenal), the “hypotensive action relative to same intraduodenal dose of compound of Example 3 (or 12)” value is given as “only the half”. The compound also returned a pA2 in assay [10] (negative logarithm of the molar antagonist concentration inhibiting the agonist to 50%, norepinephrine agonist, 5 min) of 9.45. In assay [10] (rabbit aorta, norepinephrine), the “Slope of the curve” value was -0.96. The “decrease in resistance of the renal artery” value in [11] is recorded as “about 40%”.

For the origin of these results see patent US4826845A, “3(2H)-pyridazinones and pharmaceutical compositions thereof” (Richter Gedeon Vegyeszeti Gyar T.R., priority 1985, dated 1989).
